Laboratory results published in patent publication US20250002473A1, “QUINOXALINE DERIVED SULFONAMIDES WITH EGFR DEGRADATION ACTIVITIES AND THEIR USES THEREOF” (Accutar Biotechnology Inc., priority 2023, published 2025).

Tests used:
Format in all cases: cell-based
[1] = biological target: T1, A431 (EGFR_WT) (Homo sapiens, UniProt P00533); assay: EGFR degradation assay (western blot), A431 cells; settings: compounds 24 h, western blot, read-out: A431 DC50
T1 construct: endogenous in cells; host or cells: A431, NCI-H2073, NCI-H292
T1 sequence (P00533 25-1210): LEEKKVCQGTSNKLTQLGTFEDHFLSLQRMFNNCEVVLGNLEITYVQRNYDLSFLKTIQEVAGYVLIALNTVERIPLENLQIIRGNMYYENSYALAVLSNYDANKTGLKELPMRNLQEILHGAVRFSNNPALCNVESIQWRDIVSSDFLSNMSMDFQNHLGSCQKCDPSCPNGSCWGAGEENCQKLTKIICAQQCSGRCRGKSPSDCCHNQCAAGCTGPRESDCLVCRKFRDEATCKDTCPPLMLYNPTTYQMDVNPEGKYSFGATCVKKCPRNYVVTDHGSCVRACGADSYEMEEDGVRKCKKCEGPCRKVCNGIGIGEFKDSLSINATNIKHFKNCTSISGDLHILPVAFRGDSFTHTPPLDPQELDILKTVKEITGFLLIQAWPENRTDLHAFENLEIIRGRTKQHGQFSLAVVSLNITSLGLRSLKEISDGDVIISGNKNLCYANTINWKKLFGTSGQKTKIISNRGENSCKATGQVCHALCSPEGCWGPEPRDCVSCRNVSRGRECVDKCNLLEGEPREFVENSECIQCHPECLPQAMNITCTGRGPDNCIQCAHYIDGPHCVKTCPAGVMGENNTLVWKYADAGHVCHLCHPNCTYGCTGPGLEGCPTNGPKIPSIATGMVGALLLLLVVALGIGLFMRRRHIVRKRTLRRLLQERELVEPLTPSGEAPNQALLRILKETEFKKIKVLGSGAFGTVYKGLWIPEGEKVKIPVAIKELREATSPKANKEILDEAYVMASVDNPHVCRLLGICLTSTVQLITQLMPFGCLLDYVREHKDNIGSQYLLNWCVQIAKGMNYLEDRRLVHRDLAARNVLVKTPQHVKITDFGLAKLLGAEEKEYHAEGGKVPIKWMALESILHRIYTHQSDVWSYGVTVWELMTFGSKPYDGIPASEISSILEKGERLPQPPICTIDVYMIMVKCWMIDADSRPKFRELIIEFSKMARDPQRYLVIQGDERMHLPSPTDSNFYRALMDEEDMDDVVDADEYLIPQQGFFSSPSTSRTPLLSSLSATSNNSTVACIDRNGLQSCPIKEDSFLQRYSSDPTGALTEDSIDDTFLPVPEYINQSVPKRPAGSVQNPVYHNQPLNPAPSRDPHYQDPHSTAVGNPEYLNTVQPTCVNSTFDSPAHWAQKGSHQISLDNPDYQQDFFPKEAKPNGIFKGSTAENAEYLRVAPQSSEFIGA
Procedure: (§1) A431 (EGFR_WT), NCl-H2073 (EGFR_WT), NCl-H292 (EGFR_WT), BaF3_YVAM (Her2_A775insYVAM), BaF3_SVD (EGFR_D770insSVD), BaF3_ASV (EGFR_A776inASV), or BaF3_DTC (EGFR_Exon19del/T790M/C797S) cells were seeded in a 24-well plate at a density of 4×10^5 cells per well for EGFR WT cells and 8× cells per well for EGFR or Her2 mutant cells, and the plates were incubated overnight. The cells were treated with the desired compounds for 24 h. The culture medium was removed, and 100 μL of RIPA buffer (Beyotime, P0013B) containing 1% Protease Inhibitor Cocktail (Bimake, B14001), 1% Phosphatase Inhibitor Cocktail 2 (Sigma, P5726), and 1% Phosphatase Inhibitor Cocktail 3 (Sigma, P0044) were added to lyse the cells. Then, the cell lysates were transferred to 1.5 mL microcentrifuge tubes and centrifuged at 12,000 rpm and 4° C. for 30 min. The supernatants were transferred into new tubes, and the protein concentration was determined using the BCA protein quantification method. All samples were diluted to the same concentration using RIPA buffer, loading buffer was added, samples were denatured, and 15 μg of protein per lane was loaded onto a SurePAGE 4-20% Bis-Tris gel. Samples were separated via electrophoresis in MOPS running buffer at 180 V for 100 min. Then, proteins were transferred onto PVDF membranes using the MiniBlot™ Electrophoretic Transfer Cell Device (Beyotime, E6050). The membrane was blocked using block buffer (LI-COR 927-60001) to prevent non-specific binding. The membrane was incubated with primary antibodies (1:500 dilution, EGFR-CST4405, 1:2000 dilution, Tubulin-ABclonal #AC021) at 4° C. overnight. The membrane was washed three times with 1× TBST buffer for 15 min each. The membrane was incubated with secondary antibodies IRDye 680RD Goat anti-Rabbit IgG Secondary Antibody (1:2000 dilution, LI-COR 926-68071) and IRDye 800CW Goat anti-Mouse IgG Secondary Antibody (1:2000 dilution, LI-COR 926-32210). Finally, the membrane was washed again with 1× TBST buffer 3 times. Fluorescence was detected using the Odyssey CLx Imaging System, and the data were analyzed with Empiria Studio Software and GraphPad Prism 9. Table 4 and Table 5 list the degradation results, where the degradation potency is represented by DC50, the concentration of compounds to cause the degradation of 50% of the corresponding proteins. FIGS. 45-49 show western blots illustrating the EGFR degradative activity of exemplary Compound of the present disclosure and a comparator Compound A in different cell lines 24 h after administration. The Compound referred herein as Compound A is disclosed in WO 2022/171123 A1 (see, compound 133, page 46; published Aug. 18, 2022). WO 2022/171123 A1 discloses phosphine oxide derived molecules with EGFR degradation activity.

[2] = tested on: BaF3_DTC (EGFR_Exon19del/T790M/C797S); assay: EGFR degradation assay (western blot), BaF3_DTC cells; settings: BaF3_DTC cells (EGFR_Exon19del/T790M/C797S), compounds 24 h, western blot; read-out: BaF3_DTC DC50
Procedure: as §1

[3] = biological target: T2, BaF3_ASV (EGFR_A776inASV) (Homo sapiens, UniProt P00533, DUP767-769); assay: EGFR degradation assay (western blot), BaF3_ASV cells; settings: BaF3_ASV cells, compounds 24 h, western blot; read-out: BaF3_ASV DC50
T2 construct: expressed in transfected cells; host or cells: Ba/F3 (engineered)
T2 sequence (P00533 with tags, fused parts or gaps DUP767-769): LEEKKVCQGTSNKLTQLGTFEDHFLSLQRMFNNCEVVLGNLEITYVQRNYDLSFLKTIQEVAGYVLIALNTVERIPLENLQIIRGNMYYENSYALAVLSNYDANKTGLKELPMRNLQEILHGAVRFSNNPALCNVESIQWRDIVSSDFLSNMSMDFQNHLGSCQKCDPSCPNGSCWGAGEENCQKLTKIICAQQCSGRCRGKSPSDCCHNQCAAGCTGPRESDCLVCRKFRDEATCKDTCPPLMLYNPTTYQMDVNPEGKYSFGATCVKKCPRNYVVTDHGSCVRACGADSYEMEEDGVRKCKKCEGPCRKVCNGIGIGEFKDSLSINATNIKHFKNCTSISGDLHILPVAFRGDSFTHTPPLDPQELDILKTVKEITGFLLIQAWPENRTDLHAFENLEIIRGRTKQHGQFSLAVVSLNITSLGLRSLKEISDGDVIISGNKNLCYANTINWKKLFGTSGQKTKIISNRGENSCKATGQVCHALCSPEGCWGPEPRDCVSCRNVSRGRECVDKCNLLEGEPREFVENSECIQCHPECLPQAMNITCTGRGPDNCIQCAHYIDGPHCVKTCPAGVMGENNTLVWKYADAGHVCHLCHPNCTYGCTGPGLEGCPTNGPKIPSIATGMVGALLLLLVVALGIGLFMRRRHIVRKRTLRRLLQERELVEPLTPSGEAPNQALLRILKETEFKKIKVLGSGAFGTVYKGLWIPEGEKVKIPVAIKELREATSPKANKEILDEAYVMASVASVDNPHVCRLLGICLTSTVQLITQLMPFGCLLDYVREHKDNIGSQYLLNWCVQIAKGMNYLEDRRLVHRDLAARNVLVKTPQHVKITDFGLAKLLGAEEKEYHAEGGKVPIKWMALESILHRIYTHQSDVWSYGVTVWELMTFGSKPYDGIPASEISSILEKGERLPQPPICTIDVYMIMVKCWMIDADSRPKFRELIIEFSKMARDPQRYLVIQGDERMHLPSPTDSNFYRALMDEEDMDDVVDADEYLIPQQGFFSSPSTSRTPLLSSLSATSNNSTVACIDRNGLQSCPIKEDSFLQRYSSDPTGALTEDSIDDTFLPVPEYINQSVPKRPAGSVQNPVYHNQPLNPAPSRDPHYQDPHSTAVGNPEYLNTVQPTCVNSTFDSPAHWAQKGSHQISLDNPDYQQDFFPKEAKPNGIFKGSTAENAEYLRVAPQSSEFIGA
Procedure: as §1

[4] = tested on: A431; assay: Cell growth inhibition assay (CellTiter-Glo), A431; settings: Homo sapiens, A-431, 72 h, Table 6; A431 cells, three days, CellTiter-Glo; read-out: A431 GI50
Procedure: (§2) Cells were seeded in a 96-well plate (Corning 3610) with 90 μL of culture medium per well, and plates were incubated at 37° C. overnight. A 1,000× DMSO stock solution of the desired compound was prepared the following day. A compound dilution plate was prepared by diluting the stock solution 1:100 in the corresponding cell culture medium, 10 μL of the diluted compound solution was added to each 96-well plate well containing the seeded cells. […] The content of the wells was mixed by shaking continuously for 10 min, and luminescence was measured using Envision (PerkinElmer). The data were analyzed with GraphPad Prism 9 (see FIG. 50).
(§3) Table 6, Table 7, and Table 8 list the cell growth inhibition results, where Gls0 represents the compound concentration to cause 50% cell growth inhibition in comparison with DMSO.

[5] = tested on: BaF3_DTC; assay: Cell growth inhibition assay (CellTiter-Glo), BaF3_DTC; settings: 72 h; Table 6; BaF3_DTC cells, three days, CellTiter-Glo; read-out: BaF3_DTC GI50
Procedure: as §2, §3

[6] = tested on: BaF3_ASV; assay: Cell growth inhibition assay (CellTiter-Glo), BaF3_ASV; settings: 72 h; Table 6; BaF3_ASV cells, three days, CellTiter-Glo; read-out: BaF3_ASV GI50
Procedure: as §2, §3

Structure (SMILES)	DC50 [1]	DC50 [2]	DC50 [3]	GI50 [4]	GI50 [5]	GI50 [6]
CCc1cc(Nc2ncc(Br)c(Nc3ccc4nccnc4c3NS(C)(=O)=O)n2)c(OC)cc1N1CCC(N2CCN(CCc3cccc4c3CN(C3CCC(=O)NC3=O)C4=O)CC2)CC1 (stereo not drawn) [Compound 9, N-(6-((5-bromo-2-((4-(4-(4-(2-(2-(2,6-dioxopiperidin-3-yl)-1-oxoisoindolin-4-yl)ethyl)piperazin-1-yl)piperidin-1-yl)-5-ethyl-2-methoxyphenyl)amino)pyrimidin-4-yl)amino)quinoxalin-5-yl)methanesulfonamide]	> 1 µM	0.00805 µM	0.251 µM	> 1 µM	0.0147 µM	0.563 µM
CCc1cc(Nc2ncc(Br)c(Nc3ccc4nccnc4c3NS(C)(=O)=O)n2)c(OC)cc1N1CCC(N2CCN(CCc3cc(F)c(C4CCC(=O)NC4=O)c(F)c3)CC2)CC1 (stereo not drawn) [Compound 71, N-(6-((5-bromo-2-((4-(4-(4-(4-(2,6-dioxopiperidin-3-yl)-3,5~difluorophenethyl)piperazin-1-yl)piperidin-1-yl)-5-ethyl-2-methoxyphenyl)amino)pyrimidin-4-yl)amino)quinoxalin-5-yl)methanesulfonamide]	> 1 µM	0.00351 µM	0.0551 µM	> 3 µM	0.00541 µM	0.131 µM
CCc1cc(Nc2ncc(Br)c(Nc3ccc4nccnc4c3NS(C)(=O)=O)n2)c(OC)cc1N1CCC(N2CC[C@@H](CN3CCN(c4ccc5c(c4)CN([C@H]4CCC(=O)NC4=O)C5=O)CC3)C2)CC1 [Compound 92]	> 1 µM	0.00397 µM	0.0245 µM	> 1 µM	0.0146 µM	0.0929 µM
CCc1cc(Nc2ncc(Br)c(Nc3ccc4nccnc4c3NS(C)(=O)=O)n2)c(OC)cc1N1CCC(N2CC3(CCN(c4ccc5c(c4)CN(C4CCC(=O)NC4=O)C5=O)CC3)C2)CC1 (stereo not drawn) [Compound 57, N-(6-((5-bromo-2-((4-(4-(7-(2-(2,6-dioxopiperidin-3-yl)-1~oxoisoindolin-5-yl)-2,7-diazaspiro[3.5]nonan-2-yl)piperidin-1-yl)-5-ethyl-2-methoxyphenyl)amino)pyrimidin-4-yl)amino)quinoxalin-5-yl)methanesulfonamide]	> 1 µM	0.00473 µM	0.0445 µM	0.36 µM	0.00589 µM	0.0515 µM
CCc1cc(Nc2ncc(Br)c(Nc3ccc4nccnc4c3NS(C)(=O)=O)n2)c(OC)cc1N1CCC(N2CCN(C(=O)C3CCN(c4ccc5c(c4)CN(C4CCC(=O)NC4=O)C5=O)CC3)CC2)CC1 (stereo not drawn) [Compound 10, N-(6-((5-bromo-2-((4-(4-(4-(1-(2-(2,6-dioxopiperidin-3-yl)-1-oxoisoindolin-5-yl)piperidine-4-carbonyl)piperazin-1-yl)piperidin-1-yl)-5-ethyl-2-methoxyphenyl)amino)pyrimidin-4-yl)amino)quinoxalin-5-yl)methanesulfonamide]	> 1 µM	0.00121 µM	0.02 µM	> 1 µM	0.0096 µM	0.0727 µM
CCc1cc(Nc2ncc(Br)c(Nc3ccc4nccnc4c3NS(C)(=O)=O)n2)c(OC)cc1N1CCC(N2CCN(CC3CCN(c4ccc5c(c4)C(=O)N(C4CCC(=O)NC4=O)C5=O)CC3)CC2)CC1 (stereo not drawn) [Compound 6, N-(6-((5-bromo-2-((4-(4-(4-((1-(2-(2,6-dioxopiperidin-3-yl)-1,3-dioxoisoindolin-5-yl)piperidin-4-yl)methyl)piperazin-1-yl)piperidin-1-yl)-5-ethyl-2-methoxyphenyl)amino)pyrimidin-4-yl)amino)quinoxalin-5-yl)methanesulfonamide]	> 1 µM	0.00594 µM	0.289 µM	> 1 µM	0.0112 µM	0.282 µM
CCc1cc(Nc2ncc(Br)c(Nc3ccc4nccnc4c3NS(C)(=O)=O)n2)c(OC)cc1N1CCC(N2CCN(CC3CCN(c4ccc5c(c4)CN(C4CCC(=O)NC4=O)C5=O)CC3)CC2)CC1 (stereo not drawn) [Compound 7, N-(6-((5-bromo-2-((4-(4-(4-((1-(2-(2,6-dioxopiperidin-3-yl)-1-oxoisoindolin-5-yl)piperidin-4-yl)methyl)piperazin-1-yl)piperidin-1-yl)-5-ethyl-2-methoxyphenyl)amino)pyrimidin-4~yl)amino)quinoxalin-5-yl)methanesulfonamide]	> 1 µM	0.00243 µM	0.0166 µM	> 1 µM	0.00284 µM	0.0419 µM
CCc1cc(Nc2ncc(Br)c(Nc3ccc4nccnc4c3NS(C)(=O)=O)n2)c(OC)cc1N1CCC(N2CCN(C3CC4(CCN(c5ccc6c(c5)CN(C5CCC(=O)NC5=O)C6=O)CC4)C3)CC2)CC1 (stereo not drawn) [Compound 48, N-(6-((5-bromo-2-((4-(4-(4-(7-(2-(2,6-dioxopiperidin-3-yl)-1-oxoisoindolin-5-yl)-7-azaspiro[3.5]nonan-2-yl)piperazin-1-yl)piperidin-1-yl)-5-ethyl-2-methoxyphenyl)amino)pyrimidin-4-yl)amino)quinoxalin-5-yl)methanesulfonamide]	> 1 µM	0.00426 µM	0.0237 µM	> 1 µM	0.00604 µM	0.0367 µM
CCc1cc(Nc2ncc(Br)c(Nc3ccc4nccnc4c3NS(C)(=O)=O)n2)c(OC)cc1N1CCC(N2CCN(C3CCN(c4ccc5c(c4)CN(C4CCC(=O)NC4=O)C5=O)CC3)CC2)CC1 (stereo not drawn) [Compound 49, N-(6-((5-bromo-2-((4-(4-(4-(1-(2-(2,6-dioxopiperidin-3-yl)-1-oxoisoindolin-5-yl)piperidin-4-yl)piperazin-1-yl)piperidin-1-yl)-5-ethyl-2-methoxyphenyl)amino)pyrimidin-4-yl)amino)quinoxalin-5-yl)methanesulfonamide]	> 1 µM	0.00236 µM	0.0197 µM	≥ 1 µM	0.00443 µM	0.0327 µM
CCc1cc(Nc2ncc(Br)c(Nc3ccc4nccnc4c3NS(C)(=O)=O)n2)c(OC)cc1N1CCC(N2CCN(c3ccc4c(c3)CN([C@H]3CCC(=O)NC3=O)C4=O)CC2)CC1 [Compound 38, (S)-N-(6-((5-bromo-2-((4-(4-(4-(2-(2,6-dioxopiperidin-3-yl)-1-oxoisoindolin-5-yl)piperazin-1-yl)piperidin-1-yl)-5-ethyl-2-methoxyphenyl)amino)pyrimidin-4-yl)amino)quinoxalin-5~yl)methanesulfonamide]	> 1 µM	0.0042 µM	0.0351 µM	> 1 µM	0.00914 µM	0.0903 µM
